Measured values: US20250368649A1, “TETRAHYDROPYRIDOPYRIMIDINE PAN-KRAS INHIBITORS” (Mirati Therapeutics, Inc., priority 2022, published 2025)

Assays:
A549 cells = assay: Inhibition of KRas-mediated phosphorylation of ERK (Cisbio HTRF pERK), A549 cells; type: cell-based; details: Homo sapiens; for IC50: A549, 3 h, 3 hr compound incubation, Cisbio pERK HTRF; for inhibition at 0.1 µM: single point at 100 nM, 3 hrs compound incubation
KRas G12D = KRas G12D (Homo sapiens, UniProt P01116, G12D); assay: biochemical; details: Binding to KRas (IC50 nM) G12D, TR-FRET displacement, KRas G12D
Chain of KRas G12D (P01116 1-169 isoform P01116-2 G12D): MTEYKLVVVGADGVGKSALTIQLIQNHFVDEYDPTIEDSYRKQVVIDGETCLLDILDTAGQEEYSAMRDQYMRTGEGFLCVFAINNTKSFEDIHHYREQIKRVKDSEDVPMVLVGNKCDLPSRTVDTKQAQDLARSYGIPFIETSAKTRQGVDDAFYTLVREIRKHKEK

ASPC1 cells = assay: Inhibition of KRas-mediated phosphorylation of ERK (Cisbio HTRF pERK), ASPC1 cells; type: cell-based; details: Homo sapiens, AsPC-1 cells; for IC50: ASPC1, 3 h, 3 hr compound incubation, Cisbio pERK HTRF
H460 cells = assay: Inhibition of KRas-mediated phosphorylation of ERK (Cisbio HTRF pERK), H460 cells; type: cell-based; details: Homo sapiens; for IC50: NCI-H460, 3 h, 3 hr compound incubation, Cisbio pERK HTRF; for inhibition at 0.1 µM: NCI-H460, single point at 100 nM, 3 hrs compound incubation
H727 cells = assay: Inhibition of KRas-mediated phosphorylation of ERK (Cisbio HTRF pERK), H727 cells; type: cell-based; details: Homo sapiens; for IC50: NCI-H727, 3 h, 3 hr compound incubation, Cisbio pERK HTRF
MKN1 cells = assay: Inhibition of KRas-mediated phosphorylation of ERK (Cisbio HTRF pERK), MKN1 cells; type: cell-based; details: Homo sapiens, MKN-1, 3 hour compound incubation, Cisbio pERK HTRF
Description: (§1) Inhibition of KRas Phosphorylation of ERK (HTRF) by Exemplary Compounds of Formula (I) Cisbio HTRF Advanced pERK Assay Catalog #64AERPEH • Cells: MKN1, PSN1 • Procedure: • Day 1: Seed 6,000 cells/well -25 µl/well in 384-well white solid bottom plate; RPM1_10% FBS.

PSN1 cells = assay: Inhibition of KRas-mediated phosphorylation of ERK (Cisbio HTRF pERK), PSN1 cells; type: cell-based; details: Homo sapiens, PSN1, 3 h, 3 hour compound incubation, Cisbio pERK HTRF
Description: as §1

KRas G12V = KRas G12V (Homo sapiens, UniProt P01116, G12V); assay: biochemical; details: Binding to KRas (IC50 nM) G12V, TR-FRET displacement, KRas G12V
Chain of KRas G12V (P01116 1-169 isoform P01116-2 G12V): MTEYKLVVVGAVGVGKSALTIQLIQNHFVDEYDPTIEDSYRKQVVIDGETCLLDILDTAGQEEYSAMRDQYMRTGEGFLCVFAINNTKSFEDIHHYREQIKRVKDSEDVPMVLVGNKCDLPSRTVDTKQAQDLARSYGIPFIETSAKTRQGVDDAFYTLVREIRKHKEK

HCT116 cells = assay: Inhibition of KRas-mediated phosphorylation of ERK (Cisbio HTRF pERK), HCT116 cells; type: cell-based; details: Homo sapiens; for IC50: HCT-116, 3 h, 3 hr compound incubation, Cisbio pERK HTRF; for inhibition at 0.1 µM: HCT-116, single point at 100 nM, 3 hrs compound incubation
KRas G12R = KRas G12R (Homo sapiens, UniProt P01116, G12R); assay: biochemical; details: Binding to KRas (IC50 nM) G12R, TR-FRET displacement, KRas G12R
Chain of KRas G12R (P01116 1-169 isoform P01116-2 G12R): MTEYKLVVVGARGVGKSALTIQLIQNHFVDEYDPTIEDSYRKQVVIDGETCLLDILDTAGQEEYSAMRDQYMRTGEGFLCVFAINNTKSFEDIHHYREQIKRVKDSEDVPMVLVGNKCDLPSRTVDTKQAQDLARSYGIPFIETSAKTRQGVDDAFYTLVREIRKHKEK

H358 cells = assay: Inhibition of KRas-mediated phosphorylation of ERK (Cisbio HTRF pERK), H358 cells; type: cell-based; details: Homo sapiens, NCI-H358, single point at 100 nM, 3 hrs compound incubation

Compound	IC50 (A549 cells) [nM]	IC50 (KRas G12D) [nM]	IC50 (ASPC1 cells) [nM]	IC50 (H460 cells) [nM]	IC50 (H727 cells) [nM]	IC50 (MKN1 cells) [nM]	IC50 (PSN1 cells) [nM]	IC50 (KRas G12V) [nM]	IC50 (HCT116 cells) [nM]	IC50 (KRas G12R) [nM]	inhibition at 0.1 µM (H460 cells) [%]	inhibition at 0.1 µM (HCT116 cells) [%]	inhibition at 0.1 µM (A549 cells) [%]	inhibition at 0.1 µM (ASPC1 cells; ASPC1, single point at 100 nM, 3 hrs compound incubation) [%]	inhibition at 0.1 µM (H727 cells; NCI-H727, single point at 100 nM, 3 hrs compound incubation) [%]	inhibition at 0.1 µM (H358 cells) [%]
CCc1c(F)ccc2cc(O)cc(N3CCc4c(nc(OCC5(CN(C)C)CC5)nc4N4CCCn5nncc5C4)C3)c12 [Example 430, 4-(4-(7,8-dihydro-4H-[1,2,3]triazolo[1,5-a][1,4]diazepin-5(6H)-yl)-2-((1-((dimethylamino)methyl)cyclopropyl)methoxy)-5,6-dihydropyrido[3,4-d]pyrimidin-7(8H)-yl)-5-ethyl-6-fluoronaphthalen-2-ol]	592	< 2	134	439	269	94.9	> 10000	< 2	1030	< 2						
CCc1c(F)ccc2cc(O)cc(N3CCc4c(nc(OC[C@@]56CCCN5C[C@H](F)C6)nc4N4CCCc5nc[nH]c5C4)C3)c12 [Example 357, 4-(4-(7,8-dihydroimidazo[4,5-c]azepin-5(3H,4H,6H)-yl)-2-(((2R,7aS)-2-fluorohexahydro-1H-pyrrolizin-7a-yl)methoxy)-5,6-dihydropyrido[3,4-d]pyrimidin-7(8H)-yl)-5-ethyl-6-fluoronaphthalen-2-ol]		11	4410		1830	2600	> 10000	6		7	12	-20				
CCc1c(F)ccc2cc(O)cc(N3CCc4c(nc(OC[C@@]56CCCN5C[C@H](F)C6)nc4N4CCCC(O)(C(N)=O)C4)C3)c12 (stereo partly drawn) [Example 368, 1-(7-(8-ethyl-7-fluoro-3-hydroxynaphthalen-1-yl)-2-(((2R,7aS)-2-fluorohexahydro-1H-pyrrolizin-7a-yl)methoxy)-5,6,7,8-tetrahydropyrido[3,4-d]pyrimidin-4-yl)-3-hydroxypiperidine-3-carboxamide]		10	666		489	69.1	7050	5		6	31	1				
CCc1c(NC)nn2c1CN(c1nc(OC[C@@]34CCCN3C[C@H](F)C4)nc3c1CCN(c1cc(O)cc4ccc(F)c(CC)c14)C3)CCC2 [Example 404]	134	5	182	178	188	43.5	> 10000	6	424	3						
CCc1c(F)ccc2cc(O)cc(N3CCc4c(nc(OC[C@@]56CCCN5C[C@H](F)C6)nc4N4CCCc5n[nH]cc5C4)C3)c12 [Example 361, 4-(4-(7,8-dihydropyrazolo[4,3-c]azepin-5(2H,4H,6H)-yl)-2-(((2R,7aS)-2-fluorohexahydro-1H-pyrrolizin-7a-yl)methoxy)-5,6-dihydropyrido[3,4-d]pyrimidin-7(8H)-yl)-5-ethyl-6-fluoronaphthalen-2-ol]		14	636		466	401	> 10000	6		5	1	-11				
Oc1cc(N2CCc3c(nc(OC[C@@]45CCCN4C[C@H](F)C5)nc3N3CCCC4(CCSC4)C3)C2)c2c(Cl)c(F)ccc2c1 (stereo partly drawn) [Example 464, 5-chloro-6-fluoro-4-(2-(((2R,7aS)-2-fluorohexahydro-1H-pyrrolizin-7a-yl)methoxy)-4-(2-thia-7-azaspiro[4.5]decan-7-yl)-5,6-dihydropyrido[3,4-d]pyrimidin-7(8H)-yl)naphthalen-2-ol]		9	1000		1180	676	> 10000	8		12	-24	14				

More lines, main results first:

IC50 (A549 cells) [nM]	IC50 (KRas G12D) [nM]	IC50 (ASPC1 cells) [nM]	IC50 (H460 cells) [nM]	IC50 (H727 cells) [nM]	IC50 (MKN1 cells) [nM]	IC50 (PSN1 cells) [nM]	IC50 (KRas G12V) [nM]	IC50 (HCT116 cells) [nM]	IC50 (KRas G12R) [nM]	Compound	inhibition at 0.1 µM (H460 cells) [%]	inhibition at 0.1 µM (HCT116 cells) [%]	inhibition at 0.1 µM (A549 cells) [%]	inhibition at 0.1 µM (ASPC1 cells; ASPC1, single point at 100 nM, 3 hrs compound incubation) [%]	inhibition at 0.1 µM (H727 cells; NCI-H727, single point at 100 nM, 3 hrs compound incubation) [%]	inhibition at 0.1 µM (H358 cells) [%]
	3	1060		1220	814	> 10000	4		5	CCc1c(F)ccc2cc(O)cc(N3CCc4c(nc(OC[C@@]56CCCN5C[C@H](F)C6)nc4N4CCCn5nc(CNC(=O)N(C)C)cc5C4)C3)c12 [Example 354, 3-((5-(7-(8-ethyl-7-fluoro-3-hydroxynaphthalen-1-yl)-2-(((2R,7aS)-2-fluorohexahydro-1H-pyrrolizin-7a-yl)methoxy)-5,6,7,8-tetrahydropyrido[3,4-d]pyrimidin-4-yl)-5,6,7,8-tetrahydro-4H-pyrazolo[1,5-a][1,4]diazepin-2-yl)methyl)-1,1-dimethylurea]	8	11				
	< 2	10		19	16.3	5350	< 2		< 2	CCCCN(C)C(=O)c1cc2n(n1)CCCN(c1nc(OC[C@@]34CCCN3C[C@H](F)C4)nc3c1CCN(c1cc(O)cc4ccc(F)c(CC)c14)C3)C2 [Example 496, N-butyl-5-(7-(8-ethyl-7-fluoro-3-hydroxynaphthalen-1-yl)-2-(((2R,7aS)-2-fluorohexahydro-1H-pyrrolizin-7a-yl)methoxy)-5,6,7,8-tetrahydropyrido[3,4-d]pyrimidin-4-yl)-N-methyl-5,6,7,8-tetrahydro-4H-pyrazolo[1,5-a][1,4]diazepine-2-carboxamide]			95	96	71	97
	< 2	492		214	54.8	> 10000	< 2	> 10000	< 2	CCc1c(F)ccc2cc(O)cc(N3CCc4c(nc(OC[C@@]56CCCN5C[C@H](F)C6)nc4N4CCCn5nc(C(=O)O)cc5C4)C3)c12 [Example 389, 5-(7-(8-ethyl-7-fluoro-3-hydroxynaphthalen-1-yl)-2-(((2R,7aS)-2-fluorohexahydro-1H-pyrrolizin-7a-yl)methoxy)-5,6,7,8-tetrahydropyrido[3,4-d]pyrimidin-4-yl)-5,6,7,8-tetrahydro-4H-pyrazolo[1,5-a][1,4]diazepine-2-carboxylic acid]			-36			23
	2	997		716	456	> 10000	3		< 2	CCc1c(F)ccc2cc(O)cc(N3CCc4c(nc(OC[C@@]56CCCN5C[C@H](F)C6)nc4N4CCCn5nc(NS(C)(=O)=O)cc5C4)C3)c12 [Example 364, N-(5-(7-(8-ethyl-7-fluoro-3-hydroxynaphthalen-1-yl)-2-(((2R,7aS)-2-fluorohexahydro-1H-pyrrolizin-7a-yl)methoxy)-5,6,7,8-tetrahydropyrido[3,4-d]pyrimidin-4-yl)-5,6,7,8-tetrahydro-4H-pyrazolo[1,5-a][1,4]diazepin-2-yl)methanesulfonamide]	13	10				
	3	597		562	417	> 10000	6		9	CCc1c(F)ccc2cc(O)cc(N3CCc4c(nc(OC[C@@]56CCCN5C[C@H](F)C6)nc4N4CCCn5nc(N(C)C(C)=O)cc5C4)C3)c12 [Example 355, N-(5-(7-(8-ethyl-7-fluoro-3-hydroxynaphthalen-1-yl)-2-(((2R,7aS)-2-fluorohexahydro-1H-pyrrolizin-7a-yl)methoxy)-5,6,7,8-tetrahydropyrido[3,4-d]pyrimidin-4-yl)-5,6,7,8-tetrahydro-4H-pyrazolo[1,5-a][1_4]diazepin-2-yl)-N-methylacetamide]	18	-28				
